For this test, the system named is CEM cells HIV-1 protection, formazan growth assay. Nature of the test: NCI AIDS Antiviral Assay. Particulars: for IC50: measured here: growth of uninfected CEM cells. The procedure, abridged: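 Soluble formazan readout of cell growth; CEM cells ± HIV-1; 5 drug concs. ≥50% protection → retest; ≥50% again = moderately active; reproducible 100% = confirmed active.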

Where “and” joins values, the source holds several entries; their conditions need not be identical. Equal values may be shown once. Calls of active or inactive are those of the source.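 Rule for the calls: active = compounds giving half or more protection of infected cells from virus-caused growth loss, again on retest; inactive = the rest.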 Where a SMILES comes first, the peptide text is derived from it. The star is where a group is joined. Cbz = O=C(OCc1ccccc1)*

Consider `COc1ccc(-c2cn3ccsc3n2)cc1`, for which the EC50 is more than 195 µM and the IC50 amounted to 162 µM.

Take `O=C1CN2Cc3c(sc4c3CCCC4)N=C2N1`: the EC50 was more than 200 µM and the IC50 came to 138 µM.

Consider `COC(=O)c1c(C)oc2ccc(OC(C)=O)cc12`, for which the outcome was inactive.

`COc1ccc(C2SC(C)C(=O)N2c2nc(-c3nc(-c4ccc(Cl)cc4)cs3)cs2)cc1` (configuration not stated): the EC50 is more than 200 µM and the IC50 was more than 100 µM.

For `Oc1ccc2c(c1)OCC(O)(c1ccccc1O)C2` (configuration not stated), the outcome was inactive.

Take `C/C=C(/C)C(=O)O[C@H](C[C@@H](C)[C@H]1CC(c2ccoc2)OC1=O)[C@@]1(C)C(=O)CCC2O[C@]21C` (some centres not stated): the EC50 is more than 200 µM and the IC50 is more than 200 µM.

Turning to `O=C(CC(NC(=O)OCc1ccccc1)C(=O)NC1Cc2ccccc2C1=O)OCc1ccccc1` (configuration not stated), the EC50 was more than 200 µM and the IC50 was more than 200 µM.

Consider `COc1cccc2nc3cc(C)c(C)cc3nc12`, for which the EC50 was more than 30.2 µM and the IC50 was more than 30.2 µM.

On to `CC(C)CC(=O)NC(C(=O)NC(C(=O)NC(CC(C)C)C(O)CC(=O)NC(C)C(=O)NC(CC(C)C)C(O)CC(=O)O)C(C)C)C(C)C` (configuration not stated), for which the EC50 was more than 36.3 µM and the IC50 was more than 36.3 µM.

For the compound `CC1(C)CC(=O)c2c(nc3ccc4ccccc4c3c2-c2ccc(NC(=O)CCC(=O)Nc3ccc(-c4c5c(nc6ccc7ccccc7c46)CC(C)(C)CC5=O)cc3)cc2)C1`, the EC50 was more than 100 µM and the concentration for half-maximal inhibition (IC50) was more than 100 µM.

With `O=c1c2c(oc3cc(OCC4CO4)ccc13)CCC2` (configuration not stated), the EC50 is more than 200 µM and the half-maximal inhibitory concentration (IC50) came out at 50.1 µM.

For the compound `O=C1C(=C2CCCC2)CC/C1=C1/SS/C(=C2/CCC(=C3CCCC3)C2=O)S1`, the EC50 was more than 200 µM and the IC50 was found to be 120 µM.

As to `O=C(O)c1ccccc1S`, the EC50 was more than 200 µM and the 50% inhibitory concentration (IC50) is more than 200 µM.

For the compound `COc1ccc(/C=C(/C(=O)c2ccc(Cl)cc2)N2C=CC=CC2=C(C#N)C#N)cc1OC`, the EC50 is more than 20 µM and the IC50 is 0.117 µM.

Take `CCC(O)(Cc1ccc(OC)cc1)c1ccc(OC)cc1` (configuration not stated): the EC50 is more than 200 µM and the half-inhibitory concentration (IC50) worked out at 123 µM.

Take `CC1=CCN(c2ccccn2)OC1c1ccccc1` (configuration not stated): the EC50 was more than 74.1 µM and the 50% inhibitory concentration (IC50) is more than 74.1 µM.

`Cc1cc2oc3ccccc3c(=O)c2c(C)c1Cl`: the EC50 was more than 28.2 µM and the IC50 was more than 28.2 µM.

For `c1cc(C[S+]2CCCC2)oc1C[S+]1CCCC1`, the EC50 was more than 200 µM and the IC50 is 102 µM.

Take `O=C(O)Cc1ccc(SSc2ccc(CC(=O)O)cc2)cc1`: the EC50 was 46.8 µM and 129 µM; the IC50 was 1120 µM and > 200 µM.

On to `CCN(CC)C(=O)c1cc([N+](=O)[O-])c(=O)n2c1[nH]c1ccccc12`, for which the EC50 was more than 200 µM and the IC50 turned out to be 151 µM.

Turning to `O=c1oc2ccccc2c(O)c1Sc1c(O)c2ccccc2oc1=O`, the outcome was inactive.

With `CC1CC2=C(S(=O)(=O)c3ccccc3)CC(S(=O)(=O)c3ccccc3)(S(=O)(=O)c3ccccc3)CC21` (configuration not stated), the EC50 is more than 50.1 µM and the IC50 is more than 50.1 µM.

For `COc1ccc(C)cc1C(=C=C=C=C(c1cc(C)ccc1OC)c1ccccc1OCc1ccccc1)c1ccccc1OCc1ccccc1`, the EC50 was more than 44.7 µM and the IC50 came to 36.3 µM.

Consider `COC(=O)c1ccccc1CC1Cc2ccc3c(c2C1=O)CCCC3` (configuration not stated), for which the EC50 was more than 200 µM and the IC50 is more than 200 µM.

In the case of `CC/C(CC(=O)CCC(=O)Nc1ccccc1[N+](=O)[O-])=N/NC(=O)C[n+]1ccccc1`, the EC50 is more than 25.7 µM and the IC50 is more than 25.7 µM.

For the compound `N#C/C(=C\c1ccc(F)cc1)C(=O)O`, the EC50 is more than 263 µM and the IC50 is more than 263 µM.

As to `Cn1c(SCc2ccc(F)cc2)nnc1C12CC3CC(CC(C3)C1)C2`, the EC50 was more than 200 µM and the IC50 was found to be 105 µM.

With `CSC(=S)Nc1cc(C)cc(C)n1`, the EC50 was more than 200 µM and the IC50 is more than 200 µM.

For `C/C(=N\NC(=S)N1CCC1)c1ccccn1`, the EC50 is more than 0.2 µM and the IC50 came out at 0.00525 µM.

As to `COc1ccccc1N1C(=O)C2c3[nH]c4ccccc4c3C3CCC(C(C)(C)C)CC3C2C1=O` (configuration not stated), the EC50 is more than 1.2 µM and the IC50 is more than 1.2 µM.

With `Nc1nc(NNc2cccc(F)c2)cc(=O)[nH]1`, the EC50 was more than 200 µM and the IC50 worked out at 16.6 µM.

`COC(=O)c1ccccc1C1CN=NC12Cc1ccc3ccccc3c1C2=O` (configuration not stated): the EC50 is more than 200 µM and the IC50 is more than 200 µM.

Consider `COc1ccc(/C(Nc2ccccc2)=C(\CCl)c2ccccc2)cc1OC`, for which the EC50 was more than 200 µM and the 50% inhibitory concentration (IC50) is 31.6 µM.

In the case of `C[C@@H]1S[C@H](c2c(F)cccc2Cl)n2c1nc1ccccc12`, the EC50 is 3.55 µM and the half-maximal inhibitory concentration (IC50) was found to be 12.9 µM.

In the case of `Cc1cn(C2CC(N=[N+]=[N-])C(CO)O2)c(=O)nc1N` (configuration not stated), the EC50 was more than 200 µM and the IC50 is more than 200 µM.

For the compound `COc1cc(OC)c2nc3ccccc3c(NCCC[N+](C)(C)[O-])c2c1[N+](=O)[O-]`, the EC50 is more than 200 µM and the IC50 was determined as 132 µM.

Turning to `O=C(/C=C/c1ccc2c(c1)OCO2)N1CCCCC1`, the outcome was inactive.

As for `CC12CCC(C3NC(=S)NN=C31)C2(C)C` (configuration not stated), the EC50 is more than 302 µM and the half-maximal inhibitory concentration (IC50) is more than 302 µM.

With `CN(C)CCCN1CCC2(CCCCC2)CC1`, the outcome was inactive.

Regarding `O=C1OC2(OC2c2ccccc2)c2ccccc21` (configuration not stated), the EC50 is more than 200 µM and the IC50 is more than 200 µM.

Regarding `C1C2CC3CC1CC(c1nn4c(C56CC7CC(CC(C7)C5)C6)nnc4s1)(C2)C3`, the EC50 was more than 200 µM and the IC50 is more than 200 µM.

`CC1=CCP(C(F)(F)F)P(C(F)(F)F)C1` (configuration not stated): the EC50 is more than 251 µM and the concentration for half-maximal inhibition (IC50) was more than 251 µM.

On to `NC1=NCC(CN2CCOCC2)O1` (configuration not stated), for which the EC50 is more than 200 µM and the IC50 was more than 200 µM.

As for `COc1cnc(NS(=O)(=O)c2ccc(N)cc2)nc1`, the EC50 is more than 200 µM and the 50% inhibitory concentration (IC50) is more than 200 µM.

In the case of `COC(=O)C(=O)C(/C=N/C(=S)NC1CCCCC1)=C(\O)c1ccc(F)cc1`, the EC50 is more than 200 µM and the IC50 is more than 200 µM.

With `Cc1nc2nn(C)cc2c(=O)n1/N=C/c1ccccc1`, the EC50 was more than 200 µM and the IC50 is more than 200 µM.

Take `CC(C)(C)C(=O)/C=C/c1cccc(Oc2ccccc2)c1`: the EC50 is more than 18.6 µM and the half-maximal inhibitory concentration (IC50) was more than 18.6 µM.

In the case of `O=C(/C=C/c1ccccc1)CCN1CCCCC1`, the EC50 is more than 200 µM and the IC50 amounted to 10.2 µM.

Turning to `COC(=O)C1=C(C(=O)OC)C2C(C)=CC(C)=CN2C(C#N)=C(SC)S1` (configuration not stated), the EC50 was more than 13.8 µM and the IC50 was more than 13.8 µM.

On to `Clc1ccc(OCc2nnc3n2N=C(c2ccc(Br)cc2)CS3)cc1`, for which the result was inactive.

Turning to `CC(C)C12C=C3CCC4C(C)(C(=O)O)CCCC4(C)C3(CC1)OO2` (configuration not stated), the EC50 was more than 741 µM and the IC50 amounted to 162 µM.

Consider `CC1CN=C(N(C)C(=O)Nc2ccc(Cl)c(Cl)c2)S1` (configuration not stated), for which the EC50 is more than 200 µM and the IC50 was 37.2 µM.

On to `OCCOCn1nc(-c2ccccc2)nc1-c1cnccn1`, for which the EC50 was more than 200 µM and the IC50 was more than 200 µM.

Take `Cc1cc(=O)oc2cc(OCC(O)COC(C)C)ccc12` (configuration not stated): the EC50 is more than 200 µM and the IC50 was 129 µM.

For the compound `C/C(=C\C(=O)O)C(=O)N(C)c1ccccc1I`, the EC50 is more than 200 µM and the IC50 was more than 200 µM.

Turning to `NC(=O)CCCNC(=O)c1ccccc1SC(=O)CCCC[n+]1ccccc1`, the EC50 was 0.646 µM and the IC50 was 16.2 µM.

As to `O=C1C(c2ccc([N+](=O)[O-])cc2)=[N+]([O-])c2ccc([N+](=O)[O-])cc21`, the result was inactive.

For the compound `CC1(C)CC(=O)C2=C(C1)NC(SSC1=C(C#N)C(c3ccc(F)cc3)C3=C(CC(C)(C)CC3=O)N1)=C(C#N)C2c1ccc(F)cc1` (configuration not stated), the EC50 was 19.1 µM and the IC50 was 39.8 µM.

As for `O/N=C\C(=Nc1ccc(Cc2ccc(N=C(/C=N\O)NO)cc2)cc1)NO`, the EC50 is more than 355 µM and the IC50 was 39.8 µM.

As for `COc1ccc(NC2C(=O)C3(C)CCC2C3(C)C)cc1` (configuration not stated), the result was inactive.

Take `Cc1nc(C(N)=S)sc1C(=O)/C=C/c1cccc(O)c1`: the EC50 was more than 85.1 µM and the IC50 was more than 85.1 µM.

With `O=C(O)C(CO)NC(=O)C1CCCN1C(=O)OCc1ccccc1` (stereo not drawn) (Cbz-Pro-Ser-OH; configuration not given here), the EC50 was more than 77.6 µM and the IC50 was more than 77.6 µM.

`C[C@@H]1CN2SN1C[C@@H]2C`: the EC50 is more than 1740 µM and the IC50 is more than 1740 µM.

In the case of `Cc1ccc(S(=O)(=O)SCc2ccccc2CSS(=O)(=O)c2ccc(C)cc2)cc1`, the outcome was inactive.

With `COC1C(C)OC(OC2CC(C)(O)Cc3cc4c(c(O)c32)C(=O)c2c(O)cc3c(c2C4=O)OC2OC3(C)C(O)C(N(C)C)C2O)C(OC)C1(C)OC` (configuration not stated), the result was inactive.

On to `CN1CCCC(CC2c3ccccc3Sc3ccccc32)C1` (configuration not stated), for which the EC50 is more than 200 µM and the IC50 was 12.3 µM.

Consider `CC(C)C1C(=O)N(c2c(F)c(F)c(F)c(F)c2F)C(=S)N1CCS(=O)c1ccccc1` (configuration not stated), for which the EC50 is more than 200 µM and the IC50 is 9.33 µM.

For `O=c1[nH]c2nc3ccccc3c(=O)n2/c1=C/c1ccccc1`, the EC50 is more than 200 µM and the IC50 is 9.12 µM.

On to `CCOC(=O)C1C(=O)CC2c3nc4ccccc4cc3CN2C1=O` (configuration not stated), for which the EC50 is more than 10 µM and the half-inhibitory concentration (IC50) was more than 10 µM.

Consider `Clc1cccc(NC2=NCCN=C(Nc3cccc(Cl)c3Cl)SS2)c1Cl`, for which the EC50 is more than 200 µM and the IC50 is 21.4 µM.

Take `CC(NS(=O)(=O)c1ccccc1)C(=O)O` (configuration not stated): the outcome was inactive.

Turning to `O=C(c1ccccc1Cl)c1c(O)c2ccccc2oc1=O`, the EC50 was more than 200 µM and the IC50 was more than 200 µM.

As to `Cn1cc(-c2ccc(CCOC3CCCCO3)cc2)c2c(C#N)cccc21` (configuration not stated), the EC50 is more than 200 µM and the IC50 stood at 38.9 µM.

On to `COC(=O)C(/C(=N\O)C(=O)Nc1ccc(Br)cc1)c1nc2ccccc2[nH]c1=O` (configuration not stated), for which the EC50 was more than 141 µM and the 50% inhibitory concentration (IC50) was more than 141 µM.

These data come from PubChem BioAssay AID179 (DTP/NCI, 2004).
